From EP2253620B1, “SUBSTITUTED 3-CYANOQUINOLINES AS PROTEIN TYROSINE KINASES INHIBITORS” (Wyeth Holdings LLC, priority 1998, dated 2000)

Legend:
[1] = molecular target: T1, epidermal growth factor receptor kinase (Homo sapiens, UniProt P00533); test: Inhibition of Epidermal Growth Factor Receptor Kinase (EGF-R) using recombinant enzyme; format: biochemical; details: averages of the individual determinations
T1 construct: containing the EGFR cDNA encoding amino acids 645 - 1186 preceded by Met-Ala-(His)6; made in house; host or cells: Sf9 insect cells, recombinant baculovirus vHcEGFR52
Description: Representative test compounds were evaluated for their ability to inhibit the phosphorylation of the tyrosine residue of a peptide substrate catalyzed by the enzyme epidermal growth factor receptor kinase. […] The enzyme used in this assay is the His-tagged cytoplasmic domain of EGFR. A recombinant baculovirus (vHcEGFR52) was constructed containing the EGFR cDNA encoding amino acids 645 - 1186 preceded by Met-Ala-(His)6. Sf9 cells in 100 mm plates were infected at an moi of 10 pfu/cell and cells were harvested 48 h post infection. A cytoplasmic extract was prepared using 1% Triton X-100 and applied to Ni-NTA column. After washing the column with 20 mM imidazole, HcEGFR was eluted with 250 mM imidazole (in 50 mM Na2HPO4, pH 8.0, 300 mM NaCl). Fractions collected were dialyzed against 10 mM HEPES, pH 7.0, 50 mM NaCl, 10% glycerol, 1ug/mL antipain and leupeptin and 0.1 mM Pefabloc SC. The protein was frozen in dry ice/methanol and stored -70°C.
Test compounds were made into 10 mg/mL stock solutions in 100% dimethylsulfoxide (DMSO). Prior to experiment, stock solutions were diluted to 500 uM with 100% DMSO and then serially diluted to the desired concentration with HEPES buffer (30 mM HEPES pH 7.4).
For the enzyme reaction, 10 µL of each inhibitor (at various concentrations) were added to each well of a 96-well plate. To this was added 3 µL of enzyme (1:10 dilution in 10mM HEPES, pH 7.4 for final conc. of 1:120). This was allowed to sit for 10 min on ice and was followed by the addition of 5 µl peptide (80 µM final conc.), 10 µl of 4X Buffer (Table A), 0.25 µL ^33P-ATP and 12 µL H2O. The reaction was allowed to run for 90 min at room temperature and was followed by spotting the entire volume on to precut P81 filter papers. The filter discs were washed 2X with 0.5% phosphoric acid and radioactivity was measured using a liquid scintillation counter.
The % inhibition of the test compound was determined for at least three different concentrations and the IC50 value was evaluated from the dose response curve. […] CPM(control) is in units of counts per minute and was a number expressing the amount of radiolabled ATP (g-^33P) incorporated into the RR-SRC peptide substrate by the enzyme after 90 minutes at room temperature in the absence of test compound as measured by liquid scintillation counting. The CPM values were corrected for the background counts produced by ATP in the absence of the enzymatic reaction. The IC50 values in TABLE 1 are averages of the individual determinations.

[2] = molecular target: T2, Kinase insert Domain containing Receptor (KDR: the catalytic domain of the VEGF receptor) (Homo sapiens, UniProt P35968); test: Inhibition of Kinase insert Domain containing Receptor (KDR) tyrosine kinase activity; format: biochemical
T2 construct: KDR: the catalytic domain of the VEGF receptor
Description: Inhibition of Kinase insert Domain containing Receptor (KDR: the catalytic domain of the VEGF receptor)
In this standard pharmacological test procedure, KDR protein is mixed, in the presence or absence of a inhibitor compound, with a substrate peptide to be phosphorylated (a copolymer of glutamic acid and tyrosine, E:Y :: 4:1) and other cofactors such as Mg^++ and sodium vanadate (a protein tyrosine phosphatase inhibitor) in an appropriate buffer to maintain pH (7.2). ATP and a radioactive tracer (either P^32- or P^33- labeled ATP) is then add to initiate phosphorylation. After incubation, the radioactive phosphate associated with the acid-insoluble fraction of the assay mixture is then quantified as reflection of substrate phosphorylation. […] Multiple entries for a given compound indication it was tested multiple times.

[3] = molecular target: Epithelial Cell Kinase (ECK) (Homo sapiens, UniProt P29317); test: Inhibition of Epithelial Cell Kinase (ECK) tyrosine kinase activity; format: biochemical
Description: In this standard pharmacological test procedure, a biotinylated peptide substrate is first immobilized on neutravidin-coated microtiter plates. The test drug, the Epithelial Cell Kinase (ECK), Mg^++, sodium vanadate (a protein tyrosine phosphatase inhibitor), and an appropriate buffer to maintain pH (7.2) are then added to the immobilized substrate-containing microtiter wells. ATP is then added to initiate phosphorylation. After incubation, the assay plates are washed with a suitable buffer leaving behind phosphorylated peptide which is exposed to horse radish peroxidase (HRP)-conjugated anti-phosphotyrosine monoclonal antibody. The antibody-treated plates are washed again and the HRP activity in individual wells is quantified as a reflection of degree of substrate phosphorylation. […] Multiple entries for a given compound indication it was tested multiple times.

Mek and Erk = Mek and Erk (Homo sapiens, UniProt P28482+Q02750); test: Mitogen Activated Protein Kinase (MAPK) coupled assay (Mek-Erk); format: biochemical; details: coupled MEK 1 / ERK2; separate entries = separate tests; read-out: Mek and Erk
Description: Mitogen Activated Protein Kinase (MAPK) Assay
To evaluate inhibitors of the MAP (mitogen activated protein) kinase a two component coupled standard pharmacological test procedure, which measures phosphorylation of a serine/threonine residue in an appropriate sequence in the substrate in the presence and absence of a putative inhibitor, was used. Recombinant human MEK 1 (MAPKK) was first used to activate recombinant human ERK2 (MAPK) and the activated MAPK (ERK) was incubated with substrate (MBP peptide or MYC peptide) in the presence of ATP, Mg^+2 and radiolabeled ^33P ATP. The phosphorylated peptide was captured on a P 81 phosphocellulose filter (paper filter or embedded in microtiter plate) washed and counted by scintillation methods.
The peptide substrates used in the assay are MBP, peptide substrate ([…]), or synthetic Myc substrate, ([…]•5 TFA. The recombinant enzymes used were prepared as GST fusion proteins of human ERK 2 and human MEK 1. Inhibitor samples were prepared as 10X stocks in 10% DMSO and an appropriate aliquot was used to deliver either 10 ug/ml for a single point screening dose or 100, 10, 1, and 0.1 uM final concentration for a dose response curve. Final DMSO concentrations were less than or equal to 1%.
The reaction was run as follows in 50 mM Tris kinase buffer, pH 7.4 in a reaction volume of 50 ul. The appropriate volume of kinase buffer and inhibitor sample was added to the tube. Appropriate dilution of enzyme was delivered to give 2-5 ug recombinant MAPK (Erk ) per tube. The inhibitor was incubated with MAPK (Erk) for 30 min at 0 deg. C. Recombinant Mek (MAPKK) ( 0.5-2.5 ug) or fully activated Mek (0.05-0.1 units) was added to activate the Erk and incubated for 30 min at 30° C. Then substrate and gamma ^33P ATP was were added to give a final concentration of 0.5- 1 mM MBPP or 250-500 uM Myc; 0.2-0.5 uCi gamma P 33 ATP/tube; 50 µM ATP final concentration. Samples were incubated at 30°C for 30 minutes and the reaction was stopped by adding 25 µl of ice cold 10 %TCA .After samples were chilled on ice for 30 min, 20 µl of sample was transferred onto P 81 phosphocellulose filter paper or appropriate MTP with embedded P 81 filter. Filter papers or MTP were washed 2 times with a large volume of 1% acetic acid, then 2 times with water. The filters or MTP were briefly air dried before addition of scintillant and samples were counted in the appropriate scintillation counter set up for reading ^33P isotope. Samples included a positive control (activated enzyme plus substrate); a no enzyme control; a no substrate control; samples with different concentrations of putative inhibitor; and samples with reference inhibitors (other active compounds or non-specific inhibitors such as staurosporine or K252 B).
The raw data was captured as cpm. Sample replicates were averaged and corrected for background count. Mean cpm data was tabulated by group and % inhibition by a test compound was calculated as (corrected cpm control- corrected. cpm sample/control) X 100 = % inhibition. […] The results obtained for representative compounds of this invention are listed in TABLE 2 where there may be separate entries for the same compound; this is an indication that the compound was evaluated more than one time.

3T3 = test: Inhibition of Cancer Cell Growth as Measured by Cell Number; format: cell-based; details: Mus musculus, NIH3T3; 48 hours exposure, Sulforhodamine B
Description: (§1) Inhibition of Cancer Cell Growth as Measured bv Cell Number
(§2) Human tumor cell lines were plated in 96-well plates (250 µl/well, 1-6 x 10^4 cells/ml) in RPMI 1640 medium, containing 5% FBS (Fetal Bovine Serum). […] After 48 hours exposure to test compounds, cells were fixed with trichloroacetic acid, and stained with Sulforhodamine B. After washing with trichloroacetic acid, bound dye was solubilized in 10 mM Tris base and optical density was determined using plate reader. Under conditions of the assay the optical density is proportional to the number of cells in the well. […] The test procedure is described in details by Philip Skehan et. al, J.Natl. Canc. Inst., 82, 1107-1112 (1990). […] Information about some of the cell lines used in these test procedures is available from the American Type Tissue Collection: Cell Lines and Hybridomas, 1994 Reference Guide, 8th Edition.

Her2/3T3 = test: as above; format: cell-based; details: 48 hours exposure, Sulforhodamine B
Description: as §1, §2

[4] = tested on: Human Epidermoid Tumors (A431); test: In Vivo Inhibition of the Growth of Human Epidermoid Tumors (A431) in mice; details: for Relative Tumor Growth Day 7 / % T/C Day 7 / Relative Tumor Growth Day 14 / % T/C Day 14 / Relative Tumor Growth Day 21 / % T/C Day 21 / Relative Tumor Growth Day 28 / % T/C Day 28 / S/T (# of Survivors/# of Treated): Table 5, days 1 through 10; for % T/C Day 7 / % T/C Day 14 / % T/C Day 21 / % T/C Day 28: * = p < 0.01; for S/T (# of Survivors/# of Treated): Day +28 post tumor staging
Description: In Vivo Inhibition of the Growth of Human Epidermoid Tumors (A431)
BALB/c nu/nu female mice (Charles River, Wilmington, MA) were used in the in vivo standard pharmacological test procedures. Human epidermoid carcinoma cells A-431 (American Type Culture Collection, Rockville, Maryland # CRL-155) were grown in vitro as described above. A unit of 5 X 10^6 cells were injected SC into mice. […] Control animals received no drug. […] […] The %T/C (Tumor/Control) is determined by dividing the relative tumor growth of the treated group by the relative tumor growth of the placebo group and multiplying by 100.

MDAMB435 = test: Inhibition of Cancer Cell Growth as Measured by Cell Number; format: cell-based, Human; details: Homo sapiens, MDA-MB-435; 48 hours exposure, Sulforhodamine B
Description: as §1, §2

SW620 = test: as above; format: cell-based, Human; details: Homo sapiens, SW-620; 48 hours exposure, Sulforhodamine B
Description: as §1, §2

SKBR3 = test: as above; format: cell-based, Human; details: Homo sapiens, SK-BR-3; 48 hours exposure, Sulforhodamine B
Description: as §1, §2

A431 = test: as above; format: cell-based, Human; details: Homo sapiens, A-431; 48 hours exposure, Sulforhodamine B
Description: as §1, §2

T1 sequence (P00533 669-1210): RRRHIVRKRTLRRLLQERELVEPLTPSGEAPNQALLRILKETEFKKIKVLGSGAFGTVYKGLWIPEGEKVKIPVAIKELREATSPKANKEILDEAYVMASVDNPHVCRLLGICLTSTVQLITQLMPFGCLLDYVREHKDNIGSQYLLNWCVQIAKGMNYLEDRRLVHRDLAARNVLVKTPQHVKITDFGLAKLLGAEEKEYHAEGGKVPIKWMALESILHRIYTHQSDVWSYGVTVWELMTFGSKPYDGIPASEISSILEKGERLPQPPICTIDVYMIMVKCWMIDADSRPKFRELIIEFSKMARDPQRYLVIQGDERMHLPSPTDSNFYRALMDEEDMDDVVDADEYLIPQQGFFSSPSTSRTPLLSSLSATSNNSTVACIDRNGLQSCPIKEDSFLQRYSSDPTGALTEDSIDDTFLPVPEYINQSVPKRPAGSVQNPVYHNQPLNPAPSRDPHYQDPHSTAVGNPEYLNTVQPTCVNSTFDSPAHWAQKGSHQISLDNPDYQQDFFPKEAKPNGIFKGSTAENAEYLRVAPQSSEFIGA
Chain of Mek and Erk (Q02750 whole entry): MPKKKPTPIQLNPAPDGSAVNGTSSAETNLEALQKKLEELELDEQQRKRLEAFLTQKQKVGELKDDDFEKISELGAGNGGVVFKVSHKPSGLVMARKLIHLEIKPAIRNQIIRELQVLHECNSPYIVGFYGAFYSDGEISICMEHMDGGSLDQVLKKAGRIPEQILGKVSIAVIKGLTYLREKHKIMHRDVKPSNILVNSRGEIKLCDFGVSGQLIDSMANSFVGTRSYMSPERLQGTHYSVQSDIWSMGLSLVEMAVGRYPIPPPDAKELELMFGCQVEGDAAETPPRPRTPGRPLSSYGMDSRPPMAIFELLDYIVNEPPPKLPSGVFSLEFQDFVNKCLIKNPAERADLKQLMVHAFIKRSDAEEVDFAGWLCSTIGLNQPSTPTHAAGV
Chain of Mek and Erk (P28482 2-360): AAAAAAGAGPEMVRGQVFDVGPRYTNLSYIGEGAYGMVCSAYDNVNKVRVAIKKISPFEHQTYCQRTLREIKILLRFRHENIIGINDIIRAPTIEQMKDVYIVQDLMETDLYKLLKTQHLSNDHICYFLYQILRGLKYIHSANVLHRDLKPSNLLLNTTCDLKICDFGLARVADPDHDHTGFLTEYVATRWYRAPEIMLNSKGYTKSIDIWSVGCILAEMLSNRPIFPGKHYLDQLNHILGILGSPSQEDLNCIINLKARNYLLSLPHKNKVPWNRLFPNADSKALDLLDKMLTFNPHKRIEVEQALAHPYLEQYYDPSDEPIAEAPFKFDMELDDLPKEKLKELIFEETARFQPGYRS
T2 sequence (P35968 834-1162 limits assumed): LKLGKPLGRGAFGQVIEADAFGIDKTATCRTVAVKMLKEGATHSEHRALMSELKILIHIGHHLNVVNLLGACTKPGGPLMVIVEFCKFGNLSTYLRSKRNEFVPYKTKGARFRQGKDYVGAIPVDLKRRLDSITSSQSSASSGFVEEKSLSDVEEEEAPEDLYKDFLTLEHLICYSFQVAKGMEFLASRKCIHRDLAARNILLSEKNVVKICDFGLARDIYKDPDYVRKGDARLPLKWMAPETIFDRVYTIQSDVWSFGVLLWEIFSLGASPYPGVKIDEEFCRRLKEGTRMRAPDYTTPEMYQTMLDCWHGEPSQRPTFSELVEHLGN
Chain of Epithelial Cell Kinase (ECK) (P29317 24-976, species assumed): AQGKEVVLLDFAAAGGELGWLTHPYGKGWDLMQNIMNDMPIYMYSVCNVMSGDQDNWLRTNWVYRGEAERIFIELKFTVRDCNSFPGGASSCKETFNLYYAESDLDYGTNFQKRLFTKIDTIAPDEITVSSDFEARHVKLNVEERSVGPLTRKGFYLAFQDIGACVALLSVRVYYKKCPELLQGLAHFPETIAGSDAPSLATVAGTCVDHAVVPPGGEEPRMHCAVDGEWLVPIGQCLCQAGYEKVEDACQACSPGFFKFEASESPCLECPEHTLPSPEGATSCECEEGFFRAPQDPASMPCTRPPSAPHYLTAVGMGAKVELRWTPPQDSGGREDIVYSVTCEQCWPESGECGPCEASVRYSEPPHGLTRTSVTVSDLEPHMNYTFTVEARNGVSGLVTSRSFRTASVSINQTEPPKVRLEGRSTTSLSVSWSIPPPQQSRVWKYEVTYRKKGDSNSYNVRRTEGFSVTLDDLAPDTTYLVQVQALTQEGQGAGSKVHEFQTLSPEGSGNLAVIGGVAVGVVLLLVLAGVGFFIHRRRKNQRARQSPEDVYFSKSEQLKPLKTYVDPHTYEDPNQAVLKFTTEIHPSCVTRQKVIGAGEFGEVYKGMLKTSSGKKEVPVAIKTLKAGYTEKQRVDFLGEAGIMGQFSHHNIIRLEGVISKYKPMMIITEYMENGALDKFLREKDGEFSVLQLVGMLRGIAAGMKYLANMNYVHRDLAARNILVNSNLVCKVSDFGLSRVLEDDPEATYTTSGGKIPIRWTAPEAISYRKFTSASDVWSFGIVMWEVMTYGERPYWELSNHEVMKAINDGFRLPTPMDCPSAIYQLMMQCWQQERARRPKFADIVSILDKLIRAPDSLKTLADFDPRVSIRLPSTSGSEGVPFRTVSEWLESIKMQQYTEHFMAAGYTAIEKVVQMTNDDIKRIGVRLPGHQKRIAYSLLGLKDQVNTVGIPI

## N#Cc1cnc2ccc(NC(=O)C#CCN3CCC4(CC3)OCCO4)cc2c1Nc1cccc(Br)c1 [Example 82, 4-(1,4-Dioxa-8-azaspiro[4,5]dec-8-yl)but-2-ynoic Acid [4-(3-Bromophenylamino)-3-cyanoquinolin-6-yl] Amide]
[1]
  IC50: 50 nM
[2]
  IC50: > 1830 nM
[3]
  IC50: > 1830 nM
Mek and Erk
  IC50: 30000 nM

## COCCN(C)CC=CC(=O)Nc1cc2c(Nc3ccc(F)c(Cl)c3)c(C#N)cnc2cc1OC.Cl.Cl [Example 89, 4-[(2-Methoxy-ethyl)-methyl-amino]-but-2-enoic acid [4-(3-chloro-4-fluoro-phenylamino)-3-cyano-7-methoxy-quinolin-6-yl]-amide dihydrochloride]
[1]
  IC50: 10 nM
3T3
  IC50: 2.04 µg/mL
Her2/3T3
  IC50: 0.192 µg/mL
[4]; 10 mg/kg/dose PO
  Relative Tumor Growth Day 7: 2.09
  % T/C Day 7: 50* %
  Relative Tumor Growth Day 14: 3.37
  % T/C Day 14: 32* %
  Relative Tumor Growth Day 21: 5.76
  % T/C Day 21: 38* %
  Relative Tumor Growth Day 28: 7.24
  % T/C Day 28: 26* %
  S/T (# of Survivors/# of Treated): 4/5
[4]; 40 mg/kg/dose PO
  Relative Tumor Growth Day 7: 0.49
  % T/C Day 7: 11* %
  Relative Tumor Growth Day 14: 0.58
  % T/C Day 14: 6* %
  Relative Tumor Growth Day 21: 3.11
  % T/C Day 21: 21* %
  Relative Tumor Growth Day 28: 7.20
  % T/C Day 28: 26* %
  S/T (# of Survivors/# of Treated): 5/5
[4]; given orally at 40 mg/Kg and 10 mg/Kg
  inhibition of tumor growth in vivo: effective inhibitor of tumor growth in vivo
MDAMB435
  IC50: 2.07 µg/mL
SW620
  IC50: 1.53 µg/mL
SKBR3
  IC50: 0.107 µg/mL
A431
  IC50: 0.245 µg/mL
